Assay results reported in US6903113B2, “Urea substituted imidazopyridines” (3M Innovative Properties Company, priority 2000, dated 2005).
Structures can show the parent of a compound that is named as a salt.

How the values were obtained:
[1] = test system: interferon (α); assay: Cytokine Induction in Human Cells: interferon (α) by ELISA; format: cell-based; parameters: key to Lowest Effective Concentration Interferon: A “*” indicates that no induction was seen at any of the tested concentrations; conditions: human PBMC, 18 to 24 hours incubation, compounds generally tested at 30-0.014 μM; for minimal effective concentration: read-out: Lowest Effective Concentration Interferon
Source text: (§1) An in vitro human blood cell system is used to assess cytokine induction. Activity is based on the measurement of interferon and tumor necrosis factor (α) (IFN and TNF, respectively) secreted into culture media as described by Testerman et. al. In “Cytokine Induction by the Immunomodulators Imiquimod and S-27609”, Journal of Leukocyte Biology, 58, 365-372 (September, 1995).
(§2) Whole blood from healthy human donors is collected by venipuncture into EDTA vacutainer tubes. Peripheral blood mononuclear cells (PBMC) are separated from whole blood by density gradient centrifugation using Histopaque®-1077. Blood is diluted 1:1 with Dulbecco's Phosphate Buffered Saline (DPBS) or Hank's Balanced Salts Solution (HBSS). The PBMC layer is collected and washed twice with DPBS or HBSS and resuspended at 4×10^6 cells/mL in RPMI complete. The PBMC suspension is added to 48 well flat bottom sterile tissue culture plates (Costar, Cambridge, Mass. or Becton Dickinson Labware, Lincoln Park, N.J.) containing an equal volume of RPMI complete media containing test compound.
(§3) The compounds are solubilized in dimethyl sulfoxide (DMSO). The DMSO concentration should not exceed a final concentration of 1% for addition to the culture wells. The compounds are generally tested at concentrations ranging from 30-0.014 μM.
(§4) The solution of test compound is added at 60 μM to the first well containing RPMI complete and serial 3 fold dilutions are made in the wells. The PBMC suspension is then added to the wells in an equal volume, bringing the test compound concentrations to the desired range (30-0.014 μM). The final concentration of PBMC suspension is 2×10^6 cells/mL. The plates are covered with sterile plastic lids, mixed gently and then incubated for 18 to 24 hours at 37° C. in a 5% carbon dioxide atmosphere.
(§5) Following incubation the plates are centrifuged for 10 minutes at 1000 rpm (˜200×g) at 4° C. The cell-free culture supernatant is removed with a sterile polypropylene pipet and transferred to sterile polypropylene tubes. Samples are maintained at −30 to −70° C. until analysis. The samples are analyzed for interferon (α) by ELISA and for tumor necrosis factor (α) by ELISA or IGEN Assay
Interferon (α) concentration is determined by ELISA using a Human Multi-Species kit from PBL Biomedical Laboratories, New Brunswick, N.J. Results are expressed in pg/mL.
(§6) The table below lists the lowest concentration found to induce interferon and the lowest concentration found to induce tumor necrosis factor for each compound.

[2] = test system: tumor necrosis factor (α); assay: Cytokine Induction in Human Cells: tumor necrosis factor (α) by ELISA or IGEN Assay; format: cell-based; parameters: key to Lowest Effective Concentration Tumor Necrosis Factor: A “*” indicates that no induction was seen at any of the tested concentrations; conditions: human PBMC, 18 to 24 hours incubation, compounds generally tested at 30-0.014 μM; for minimal effective concentration: read-out: Lowest Effective Concentration Tumor Necrosis Factor
Source text: as §1, §2, §3, §4, §5
Tumor necrosis factor (α) (TNF) concentration is determined using ELISA kits available from Biosource International, Camarillo, Calif. Alternately, the TNF concentration can be determined by Origen® M-Series Immunoassay and read on an IGEN M-8 analyzer from IGEN International, Gaithersburg, Md. The immunoassay uses a human TNF capture and detection antibody pair from Biosource International, Camarillo, Calif. Results are expressed in pg/mL.
as §6

| melting point [°C] | Structure (SMILES) | minimal effective concentration [1] [µM] | minimal effective concentration [2] [µM] | Lowest Effective Concentration Tumor Necrosis Factor [2] | Lowest Effective Concentration Interferon [1] |
| --- | --- | --- | --- | --- | --- |
| 219 to 221 | Cc1nc(N)c2nc(C)n(CCNC(=O)N3CCOCC3)c2c1C [Example 15, N-[2-(4-amino-2,6,7-trimethyl-1H-imidazo[4,5-c]pyridin-1-yl)ethyl]morpholin-4-ylcarboxamide] |  |  |  |  |
| 128.9 to 129.7 | Cc1nc(N)c2nc(C)n(CCCNC(=O)N3CCOCC3)c2c1C [Example 13, N-[3-(4-amino-2,6,7-trimethyl-1H-imidazo[4,5-c]pyridin-1-yl)propyl]morpholin-4-ylcarboxamide] |  |  |  |  |
| 195.8 to 196.8 | CCCCc1nc2c(N)nc(C)c(C)c2n1CCCCNC(=O)Nc1ccccc1 [Example 4, N-[4-(4-Amino-2-butyl-6,7-dimethyl-1H-imidazo[4,5-c]pyridin-1-yl)butyl]-N′-phenylurea] | 0.12 | 0.37 |  |  |
| 133.1 to 133.7 | CCCCc1nc2c(N)nc(C)c(C)c2n1CCCCNS(=O)(=O)c1ccc(F)cc1 (hydrate or solvate) [Example 3, N-[4-(4-Amino-2-butyl-6,7-dimethyl-1H-imidazo[4,5-c]pyridin-1-yl)butyl]-4-fluorobenzenesulfonamide Hydrate] |  |  |  |  |
| 163.7 to 167 | Cc1nc(N)c2ncn(CCCCNC(=O)N3CCOCC3)c2c1C [Example 11, N-[4-(4-amino-6,7-dimethyl-1H-imidazo[4,5-c]pyridin-1-yl)butyl]morpholin-4-ylcarboxamide] |  |  |  |  |
| 129.5 to 131 | CCCCc1nc2c(N)nc(C)c(C)c2n1CCCCNS(=O)(=O)N(C)C [Example 6, N′-[4-(4-Amino-2-butyl-6,7-dimethyl-1H-imidazo[4,5-c]pyridin-1-yl)butyl]-N,N-dimethylsulfamide] | 0.01 | 0.01 |  |  |
| 160 to 160.8 | CCCCc1nc2c(N)nc(C)c(C)c2n1CCCCNC(=S)Nc1ccccc1 (hydrate or solvate) [Example 5, N-[4-(4-Amino-2-butyl-6,7-dimethyl-1H-imidazo[4,5-c]pyridin-1-yl)butyl]-N′-phenylthiourea Hydrate] |  |  |  |  |
| 228 to 230 | Cc1nc(N)c2nc(C)n(CCCCNS(C)(=O)=O)c2c1C [Example 7, N-[4-(4-amino-2,6,7-trimethyl-1H-imidazo[4,5-c]pyridin-1-yl)butyl]methanesulfonamide] | 0.37 |  | * |  |
| 158.1 to 160.5 | CCOCc1nc2c(N)nc(C)c(C)c2n1CCC1CCN(C(=O)N2CCOCC2)CC1 [Example 12, 2-(ethoxymethyl)-6,7-dimethyl-1-{2-[1-(morpholin-4-ylcarbonyl)piperidin-4-yl]ethyl}-1H-imidazo[4,5-c]pyridin-4-amine] |  |  |  |  |
|  | CCOCc1nc2c(N)nc(C)c(C)c2n1CCC1CCN(C(=O)N2CCOCC2)CC1 [Example 66, 2-(ethoxymethyl)-6,7-dimethyl-1-{2-[1-(morpholin-4-ylcarbonyl)piperidin-4-yl]ethyl}-1H-imidazo[4,5-c]pyridin-4-amine] | 1.11 | 10 |  |  |
|  | Cc1nc(N)c2ncn(CCCCNC(=O)NC(C)C)c2c1C [Example 16] |  |  | * | * |
|  | CCOCc1nc2c(N)nc(C)cc2n1CCCCNC(=O)Nc1ccccc1 [Example 39] | 3.33 | 10 |  |  |
|  | CCOCc1nc2c(N)nc(C)cc2n1CCCCNC(=S)NCCc1ccccc1 [Example 51] | 3.33 | 10 |  |  |
|  | CCOCc1nc2c(N)nc(C)cc2n1CCCCNC(=O)Nc1ccc(N(C)C)cc1 [Example 43] | 0.041 | 10 |  |  |
|  | CCCCNC(=O)NCCCCn1c(COCC)nc2c(N)nc(C)cc21 [Example 38] | 3.33 | 30 |  |  |
|  | CCOCc1nc2c(N)nc(C)cc2n1CCCCNC(=S)NC(=O)c1ccco1 [Example 53, N-{4-[4-amino-2-(ethoxymethyl)-6-methyl-1H-imidazo[4,5-c]pyridin-1-yl]butyl}-N′-(2-furoyl)thiourea] | 0.37 | 3.33 |  |  |
|  | CCOCc1nc2c(N)nc(C)c(C)c2n1CCC1CCN(C(=O)Nc2cccc(C#N)c2)CC1 [Example 60] | 0.37 | 1.11 |  |  |

| melting point [°C] | Structure (SMILES) | minimal effective concentration [1] [µM] | minimal effective concentration [2] [µM] | Lowest Effective Concentration Tumor Necrosis Factor [2] | Lowest Effective Concentration Interferon [1] |
| --- | --- | --- | --- | --- | --- |
|  | CCOCc1nc2c(N)nc(C)c(C)c2n1CCC1CCN(C(=O)NC(C)C)CC1 [Example 54] | 1.11 | 3.33 |  |  |
|  | COc1ccc(NC(=O)NCCCCn2cnc3c(N)nc(C)c(C)c32)c(OC)c1 [Example 26] | 30 | 30 |  |  |
|  | CCCCc1nc2c(N)nc(C)c(C)c2n1CCCCNC(=S)Nc1ccccc1 [Example 5, N-[4-(4-Amino-2-butyl-6,7-dimethyl-1H-imidazo[4,5-c]pyridin-1-yl)butyl]-N′-phenylthiourea Hydrate] | 0.01 | 0.12 |  |  |
| 156.5 to 159.5 | CCOCc1nc2c(N)nc(C)cc2n1CCCCNC(=O)N1CCOCC1 (as salt: salt) [Example 10, N-{4-[4-amino-2-(ethoxymethyl)-6-methyl-1H-imidazo[4,5-c]pyridin-1-yl]butyl}morpholin-4-ylcarboxamide] |  |  |  |  |
|  | Cc1nc(N)c2ncn(CCCCNC(=O)Nc3ccc(N(C)C)cc3)c2c1C [Example 24] | 10 | 30 |  |  |
|  | Cc1nc(N)c2ncn(CCCCNC(=O)Nc3ccccc3)c2c1C [Example 19] | 10 | 30 |  |  |
|  | Cc1nc(N)c2ncn(CCCCNC(=O)N[C@@H]3C[C@H]3c3ccccc3)c2c1C (relative stereo) [Example 28, N-[4-(4-amino-6,7-dimethyl-1H-imidazo[4,5-c]pyridin-1-yl)butyl]-N′-[(1R*,2S*)-2-phenylcyclopropyl]urea] |  |  | * | * |
|  | Cc1nc(N)c2ncn(CCCCNC(=O)NC3CCCCC3)c2c1C [Example 20] | 30 |  | * |  |
|  | CSc1cccc(NC(=O)NCCCCn2cnc3c(N)nc(C)c(C)c32)c1 [Example 25] |  | 3.33 |  | * |
|  | CC(=O)c1cccc(NC(=O)NCCCCn2cnc3c(N)nc(C)c(C)c32)c1 [Example 23] |  |  | * | * |
|  | Cc1ccc(S(=O)(=O)NC(=O)NCCCCn2cnc3c(N)nc(C)c(C)c32)cc1 [Example 30] |  |  | * | * |
|  | Cc1nc(N)c2ncn(CCCCNC(=O)N3CCOCC3)c2c1C [Example 27, N-[4-(4-amino-6,7-dimethyl-1H-imidazo[4,5-c]pyridin-1-yl)butyl]morpholin-4-ylcarboxamide] |  |  | * | * |
|  | Cc1nc(N)c2ncn(CCCCNC(=O)NC(C)(C)C)c2c1C [Example 17] | 30 |  | * |  |
| 140.5 to 142.2 | CCOCc1nc2c(N)nc(C)c(C)c2n1CCCNC(=O)N1CCOCC1 [Example 14, N-{3-[4-amino-2-(ethoxymethyl)-6,7-dimethyl-1H-imidazo[4,5-c]pyridin-1-yl]propyl}morpholin-4-ylcarboxamide] |  |  |  |  |
|  | CCOCc1nc2c(N)nc(C)cc2n1CCCCNC(=S)NC [Example 49] | 3.33 | 30 |  |  |
|  | CCOCc1nc2c(N)nc(C)c(C)c2n1CCC1CCN(C(=O)Nc2ccc(OC)cc2OC)CC1 [Example 65] | 0.37 | 1.11 |  |  |
|  | Cc1nc(N)c2ncn(CCCCNC(=S)Nc3ccccc3)c2c1C [Example 33] | 3.33 | 3.33 |  |  |
